What all share (assay type): cell-based, Chinese hamster
For experiment [1], the system named is fluorescent reporter gene DsRed under the control of an EASE/CMV promoter in CHO cells. The experiment in a line: DsRed fluorescent reporter induction in CHO cell pools, 96 well format. The following applies: for increase in DsRed expression per viable cell relative to control: 96 well, 6 days at 31° C.; for effectiveness as inducers of recombinant polypeptide production: compound screening, conditions not given. How it is done:
FIG. 1 is a graph of the Effect of Combinations of Compounds on Induction of Reporter Gene. Pools of cells that expressed a fluorescent marker protein, DsRed, under the control of an EASE/CMV promoter were cultured in 96 well plates at 35° C. for 6 days in the presence of the indicated amount of compound. The amount of fluorescence is plotted as a function of the concentration of compound. Compounds used for induction were hexanohydroxamic acid (HHA) (diamonds), Hexamethylenebisacetamide (HMBA) (squares) and both HHA+HMBA (triangles).
Using a construct that expressed DsRed under the control of a EASE/CMV promoter, including an adenoviral tripartite leader, as an indicator for expression, various compounds were assayed.
Pools of cells were selected in -GHT medium for presence of the expression vector, and then plated in a 96 well format in serum-free medium. Hydrocinnamic acid was added to test wells at 0.5 millimolar, the temperature decreased from 37° C. to 31° C., and culture continued for 6 days at the reduce temperature. DsRed fluorescence was assayed on a Wallac Victor2 multilabel microplate reader (PerkinElmer Life Sciences, Boston, Mass.).

The test system of experiment [2] is CHO cell line that expresses a soluble form of the IL1-receptor type II. The experiment in a line: IL1RII expression by CHO cell line in shake flasks. How it is done: The induction capacity of this compound was then tested in a different format on a different recombinant protein. […] Cells were grown in serum-free medium in shake flasks, hydrocinnamic acid was added to a concentration of 0.5 millimolar, and incubation continued at 31° C. for 9 to 10 days.

In experiment [3] the test system is CHO cell pools transfected with an expression vector encoding an antibody against the IL4 receptor. The experiment can be described thus: Antibody expression by unamplified CHO cell pools, 96 well plates. As to conditions: for increase in antibody expression relative to control, compound used individually: single compound (HHA 10 micromolar, 3-phenylpropionohydroxamic acid 10 micromolar, HMBA 1 millimolar as in the combinations); for increase in antibody expression relative to control, compound used individually / increase in antibody expression relative to control: 4 days at 37° C.; for increase in antibody expression relative to control: 0.5 mM inducer (per example heading), average over experiments. The method, then:
In addition, CHO cell pools transfected with an expression vector encoding an antibody against the IL4 receptor were tested (see U.S. Pat. No. 5,717,072, incorporated by reference herein). Unamplified pools were plated in serum-free medium in 96 well plates and incubated with inducer for 4 days at 37° C.

For experiment [4], the system named is CHO cell that expresses a soluble form of a TNF receptor, TNFR:Fc. The experiment in a line: TNFR:Fc expression by CHO cells in shake flasks. As to conditions: 7 days at a reduced temperature. An excerpt: Another cell line tested was a CHO cell that expresses a soluble form of a TNF receptor, TNFR:Fc (U.S. Pat. No. 5,605,690, incorporated by reference herein). […]

Experiment [5] has as its system fluorescent reporter gene DsRed under the control of an EASE/CMV promoter in CHO cells. The experiment can be described thus: DsRed fluorescent reporter induction in CHO cell pools, 96 well format. The following applies: 6 days at 31° C.
[6] abbreviates: 0.5 mM compound, average over experiments.
Where [7] appears, read: 0.5 millimolar compound, serum-free medium, 31° C. for 9 to 10 days.
[8] abbreviates: 0.5 mM compound, serum-free medium.

`Cc1ccc(CCC(=O)O)cc1` [3-(4-methylphenyl)propionic acid]: the “increase in DsRed expression per viable cell relative to control” value in experiment [1] (setting [6]) is listed as 70%. The “increase in IL1RII expression relative to control” value in experiment [2] (setting [7]) is 15%.

With `O=C(CCc1ccccc1)NO` [3-phenylpropionohydroxamic acid], in experiment [3], the “increase in antibody expression relative to control, compound used individually” value is “not a significant increase”.

For the compound `O=C(O)CCCc1ccccc1` [4-phenylbutyric acid], in experiment [1] (setting [6]), the “increase in DsRed expression per viable cell relative to control” value was 60%. Besides, the “increase in IL1RII expression relative to control” value in experiment [2] (setting [7]) worked out at 21%.

In the case of `O=C(O)CCCCc1ccccc1` [5-phenylvaleric acid], the “increase in DsRed expression per viable cell relative to control” value in experiment [1] (setting [6]) came out at 40%. The “increase in IL1RII expression relative to control” value in experiment [2] (setting [7]) is reported as 44%. In addition, the “increase in TNFR:Fc expression relative to control cells” value in experiment [4] (setting [8]) is on record as 33%. The “increase in antibody expression on day 3” value in experiment [3] (0.5 mM 5-phenylvaleric acid, 37° C., day 3) was “no increase”. Further, in experiment [3], the “increase in antibody expression relative to control” value stood at 40%.

As to `CCCCCC(=O)NO` [HHA, hexanohydroxamic acid], the “increase in IL1RII expression relative to control” value in experiment [2] (10 micromolar HHA, 31° C. for 9 days) was found to be 19%. In addition, the “increase in TNFR:Fc expression relative to control cells” value in experiment [4] (10 micromolar HHA) was determined as 19%; in experiment [4] (20 micromolar HHA), 11%. In experiment [3], the “increase in antibody expression relative to control, compound used individually” value is recorded as “did not have a significant increase”. The “increase in DsRed expression relative to the control” value in experiment [5] (10 micromolar HHA alone) amounted to 48%.

Consider `CC(=O)NCCCCCCNC(C)=O` [HMBA, hexamethylene bisacetamide, reference compound], for which the “increase in TNFR:Fc expression relative to control cells” value in experiment [4] (1.0 millimolar HMBA alone) was determined as 14%. Also, the “increase in antibody expression relative to control, compound used individually” value in experiment [3] was “not a significant increase”. For the same compound, the “increase in DsRed expression relative to the control” value in experiment [5] (1 millimolar HMBA alone) came out at 20%.

For `CCCCNC(C)=O` [N-butylacetamide], in experiment [1] (1.0 millimolar compound, average of 2 experiments), the “increase in DsRed expression per viable cell relative to control” value stood at 77%.

On to `O=C(O)CCc1ccccc1` [hydrocinnamic acid], for which the “increase in DsRed expression per viable cell relative to control” value in experiment [1] (setting [6]) is given as 60%. Moreover, the “increase in IL1RII expression relative to control” value in experiment [2] (setting [7]) was 22%. Besides, in experiment [4] (setting [8]), the “increase in TNFR:Fc expression relative to control cells” value was found to be 20%. Also, the “increase in antibody expression relative to control” value in experiment [3] is given as 5%.

In the case of `CC(CC(=O)O)C(=O)O` (centres unmarked) [methylsuccinic acid, reference compound], the “effectiveness as inducers of recombinant polypeptide production” value (from here on “effectiveness as inducers”) in experiment [1] is reported as “ineffective”.

For `O=C(O)CCCCCC(=O)O` [pimelic acid, reference compound], the “effectiveness as inducers” value in experiment [1] is given as “ineffective”.

For the compound `O=C(O)CC(O)(CC(=O)O)C(=O)[O-].[Na+]` [sodium dihydrogen citrate, reference compound], the “effectiveness as inducers” value in experiment [1] is “ineffective”.
